Tests used:
ROS1 (G2032R) = assay: Degradation assay (Western blot in treated cells); format: cell-based; conditions: average of duplicate measurements
Description: However, the degradation selectivity of 9o often contrasts with its kinase binding selectivity as determined in cells treated with 9o where the kinase level was measurable by Western blot analysis. […] For example, FLT3, CHEK2, and FES, all with kinase binding at <10 nM, were only moderately or minimally degraded, if at all (Table 9).
Protein levels were analyzed using a WES instrument according to the WES User Guide from ProteinSimple in duplicate experiments. The samples were mixed with the fluorescent 5 master mix (ProteinSimple) and then heated at 95 °C for 5 min. Boiled samples, biotinylated protein ladder, antibody diluent, Streptavidin-HRP, primary antibodies, ProteinSimple horseradish peroxidase conjugated antirabbit or antimouse secondary antibodies, luminol-peroxide, and wash buffer were loaded into the WES plate (Wes 12–230 kDa Prefilled Plates with Split Buffer, ProteinSimple). The plates and capillary cartridges were loaded into the WES instrument, and protein separation, antibody incubation, and imaging were performed according to manufacturer’s instructions. Compass software (ProteinSimple) was used to acquire the data and to generate the virtual blot image reconstruction and chemiluminescence signal intensity electropherograms. […] Protein levels are expressed as the AUC of the peak chemiluminescence intensity. […]

[1] = test system: Ba/F3 ROS1 (CD74) S1986F-L2086F; assay: Antiproliferation assay; format: cell-based; conditions: Mus musculus, BaF3; Ba/F3 cell line
Description: (§1) Ba/F3 immortalized murine bone marrow–derived pro-B cells were obtained from Creative Biogene (Shirley, NY) and cultured in RPMI supplemented with 10% FBS and IL3 (0.5 ng/mL). Ba/F3 cells expressing ROS1 variants were maintained in RPMI supplemented with 10% FBS and puromycin (0.7 mg/mL). Crizotinib, ceritinib, brigatinib, repotrectinib, and lorlatinib were purchased from MedChem Express. Each compound was dissolved in DMSO and serially diluted in RPMI for cell culture experiments.
(§2) To assess the 72 h effect of drug treatment on cell proliferation, 2000 to 3000 cells were plated in replicates of three in 96-well plates. The plates were placed in an incubator at 37 °C, 5% CO2 for 72 h. Following drug treatments, the cells were incubated with the Alamar Blue Assay reagent (BioRad), 5 μL each well for 4 h at 37 °C and 5% CO2. Luminescence was measured on a multiplate reader and analyzed. […] IC50 values were determined using a nonlinear regression model with a sigmoidal dose response in GraphPad. The data were collected based on triplicate experiments, and presented as mean ± SD.
(§3) cDNA encoding CD74-ROS1 or mutant CD74–ROS1 was cloned into retroviral expression vectors (pLenti), and viruses were generated in HEK293T cells by transfecting with packaging plasmids. The resulting virus was used to infect Ba/F3 cells. After retroviral infection, Ba/F3 cells were selected by incubation with puromycin (0.7 mg/mL) for 2 weeks. For Ba/F3 cells infected by the CD74–ROS1 variants, IL3 was withdrawn from the culture medium at least 2 weeks before the experiments.

Ba/F3 ROS1 (CD74) G2032R = assay: Antiproliferation assay; format: cell-based; conditions: Mus musculus, BaF3; Ba/F3 cell line
Description: as §1, §2, §3

[2] = test system: Ba/F3 ROS1 (CD74) G2032R-L2086F; assay: Antiproliferation assay; format: cell-based; conditions: Mus musculus, BaF3; Ba/F3 cell line
Description: as §1, §2, §3

[3] = test system: Ba/F3 ROS1 (CD74) S1986F-G2032R; assay: Antiproliferation assay; format: cell-based; conditions: Mus musculus, BaF3; Ba/F3 cell line
Description: as §1, §2, §3

Ba/F3 ROS1 (CD74) L2086F = assay: Antiproliferation assay; format: cell-based; conditions: Mus musculus, BaF3; Ba/F3 cell line
Description: as §1, §2, §3

[4] = test system: Ba/F3 ROS1 (CD74) S1986F-G2032R-L2086F; assay: Antiproliferation assay; format: cell-based; conditions: Mus musculus, BaF3; Ba/F3 cell line
Description: as §1, §2, §3

[5] = test system: Ba/F3 CD74-ROS1 WT xenograft tumors; assay: Mouse efficacy study, Ba/F3 CD74-ROS1 xenograft; format: in vivo; conditions: NOD/SCID mice
Description: All the procedures related to animal handling, care, and treatment in this study were performed according to guidelines approved by the Institutional Animal Care and Use Committee (IACUC) of Xavier University of Louisiana following the guidance of the AAALAC. Ba/F3-ROS1 and Ba/F3-ROS1-G2032R cells were maintained in RPMI 1640 medium supplemented with 10% fetal bovine serum. The cells growing in an exponential growth phase were harvested and counted for tumor inoculation. Female NOD/SCID mice 6–8 weeks of age were allowed to adapt to laboratory conditions for 10 days prior to dosing and were allowed food and water ad libitum. Each mouse was inoculated subcutaneously in the right flank with Ba/F3 CD74-ROS1 or Ba/F3 SL34A2-ROS1 G2032R cells (1 × 10^6) in 0.2 mL of PBS mixed with Matrigel (50:50) for tumor development.

[6] = test system: Ba/F3 ROS1 (SLC34A2) G2032R-D2113G; assay: Antiproliferation assay; format: cell-based; conditions: Mus musculus, BaF3; Ba/F3 cell line
Description: as §1, §2

[7] = test system: Ba/F3 ROS1 (SLC34A2) G2032R-F2075C; assay: Antiproliferation assay; format: cell-based; conditions: Mus musculus, BaF3; Ba/F3 cell line
Description: as §1, §2

[8] = test system: Ba/F3 ROS1 (SLC34A2) F2075C-G1837E; assay: Antiproliferation assay; format: cell-based; conditions: Mus musculus, BaF3; Ba/F3 cell line
Description: as §1, §2

LTK = LTK (Homo sapiens, UniProt P29376); assay: Kinase assay; format: biochemical; conditions: average of duplicate measurements
ROS1 (G2101C) = ROS1 (G2101C) (Homo sapiens, UniProt P08922, G2101C); assay: Kinase assay; format: biochemical; conditions: average of duplicate measurements
CLK1 = CLK1 (Homo sapiens, UniProt P49759); assay: Kinase assay; format: biochemical; conditions: average of duplicate measurements
EGFR = EGFR (Homo sapiens, UniProt P00533); assay: Kinase assay; format: biochemical; conditions: average of duplicate measurements
EGFR, sequence (P00533 25-1210, species assumed): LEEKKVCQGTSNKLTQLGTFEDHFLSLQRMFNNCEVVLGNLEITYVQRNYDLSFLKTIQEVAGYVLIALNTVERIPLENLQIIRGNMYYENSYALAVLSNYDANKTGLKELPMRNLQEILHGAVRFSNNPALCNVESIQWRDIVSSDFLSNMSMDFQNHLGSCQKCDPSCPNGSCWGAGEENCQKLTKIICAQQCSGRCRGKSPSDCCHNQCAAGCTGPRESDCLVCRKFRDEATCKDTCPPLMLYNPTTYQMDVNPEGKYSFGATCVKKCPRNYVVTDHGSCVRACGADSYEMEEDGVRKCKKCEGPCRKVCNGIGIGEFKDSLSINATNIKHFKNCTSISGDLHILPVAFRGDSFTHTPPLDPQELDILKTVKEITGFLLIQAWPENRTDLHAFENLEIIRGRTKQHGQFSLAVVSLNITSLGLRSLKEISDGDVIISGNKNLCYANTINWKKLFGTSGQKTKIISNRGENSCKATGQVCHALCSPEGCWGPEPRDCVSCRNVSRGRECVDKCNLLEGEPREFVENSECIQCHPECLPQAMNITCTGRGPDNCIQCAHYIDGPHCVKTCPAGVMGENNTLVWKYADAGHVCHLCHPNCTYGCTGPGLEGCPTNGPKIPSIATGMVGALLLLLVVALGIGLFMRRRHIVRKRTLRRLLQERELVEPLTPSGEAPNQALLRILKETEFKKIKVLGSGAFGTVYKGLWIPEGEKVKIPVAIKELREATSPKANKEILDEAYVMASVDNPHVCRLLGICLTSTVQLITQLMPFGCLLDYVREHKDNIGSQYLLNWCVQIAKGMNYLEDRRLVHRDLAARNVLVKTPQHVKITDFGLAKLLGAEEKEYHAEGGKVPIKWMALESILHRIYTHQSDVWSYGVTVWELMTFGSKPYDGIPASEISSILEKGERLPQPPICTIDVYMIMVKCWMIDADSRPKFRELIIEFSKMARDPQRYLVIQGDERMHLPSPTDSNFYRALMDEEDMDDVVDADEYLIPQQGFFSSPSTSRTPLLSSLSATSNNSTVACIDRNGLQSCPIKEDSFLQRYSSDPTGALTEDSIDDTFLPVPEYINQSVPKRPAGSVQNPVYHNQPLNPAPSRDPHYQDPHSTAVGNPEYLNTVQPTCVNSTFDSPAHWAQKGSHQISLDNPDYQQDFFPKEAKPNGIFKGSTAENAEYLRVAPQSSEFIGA

ROS1 (G2101C), sequence (P08922 28-2347 G2101C): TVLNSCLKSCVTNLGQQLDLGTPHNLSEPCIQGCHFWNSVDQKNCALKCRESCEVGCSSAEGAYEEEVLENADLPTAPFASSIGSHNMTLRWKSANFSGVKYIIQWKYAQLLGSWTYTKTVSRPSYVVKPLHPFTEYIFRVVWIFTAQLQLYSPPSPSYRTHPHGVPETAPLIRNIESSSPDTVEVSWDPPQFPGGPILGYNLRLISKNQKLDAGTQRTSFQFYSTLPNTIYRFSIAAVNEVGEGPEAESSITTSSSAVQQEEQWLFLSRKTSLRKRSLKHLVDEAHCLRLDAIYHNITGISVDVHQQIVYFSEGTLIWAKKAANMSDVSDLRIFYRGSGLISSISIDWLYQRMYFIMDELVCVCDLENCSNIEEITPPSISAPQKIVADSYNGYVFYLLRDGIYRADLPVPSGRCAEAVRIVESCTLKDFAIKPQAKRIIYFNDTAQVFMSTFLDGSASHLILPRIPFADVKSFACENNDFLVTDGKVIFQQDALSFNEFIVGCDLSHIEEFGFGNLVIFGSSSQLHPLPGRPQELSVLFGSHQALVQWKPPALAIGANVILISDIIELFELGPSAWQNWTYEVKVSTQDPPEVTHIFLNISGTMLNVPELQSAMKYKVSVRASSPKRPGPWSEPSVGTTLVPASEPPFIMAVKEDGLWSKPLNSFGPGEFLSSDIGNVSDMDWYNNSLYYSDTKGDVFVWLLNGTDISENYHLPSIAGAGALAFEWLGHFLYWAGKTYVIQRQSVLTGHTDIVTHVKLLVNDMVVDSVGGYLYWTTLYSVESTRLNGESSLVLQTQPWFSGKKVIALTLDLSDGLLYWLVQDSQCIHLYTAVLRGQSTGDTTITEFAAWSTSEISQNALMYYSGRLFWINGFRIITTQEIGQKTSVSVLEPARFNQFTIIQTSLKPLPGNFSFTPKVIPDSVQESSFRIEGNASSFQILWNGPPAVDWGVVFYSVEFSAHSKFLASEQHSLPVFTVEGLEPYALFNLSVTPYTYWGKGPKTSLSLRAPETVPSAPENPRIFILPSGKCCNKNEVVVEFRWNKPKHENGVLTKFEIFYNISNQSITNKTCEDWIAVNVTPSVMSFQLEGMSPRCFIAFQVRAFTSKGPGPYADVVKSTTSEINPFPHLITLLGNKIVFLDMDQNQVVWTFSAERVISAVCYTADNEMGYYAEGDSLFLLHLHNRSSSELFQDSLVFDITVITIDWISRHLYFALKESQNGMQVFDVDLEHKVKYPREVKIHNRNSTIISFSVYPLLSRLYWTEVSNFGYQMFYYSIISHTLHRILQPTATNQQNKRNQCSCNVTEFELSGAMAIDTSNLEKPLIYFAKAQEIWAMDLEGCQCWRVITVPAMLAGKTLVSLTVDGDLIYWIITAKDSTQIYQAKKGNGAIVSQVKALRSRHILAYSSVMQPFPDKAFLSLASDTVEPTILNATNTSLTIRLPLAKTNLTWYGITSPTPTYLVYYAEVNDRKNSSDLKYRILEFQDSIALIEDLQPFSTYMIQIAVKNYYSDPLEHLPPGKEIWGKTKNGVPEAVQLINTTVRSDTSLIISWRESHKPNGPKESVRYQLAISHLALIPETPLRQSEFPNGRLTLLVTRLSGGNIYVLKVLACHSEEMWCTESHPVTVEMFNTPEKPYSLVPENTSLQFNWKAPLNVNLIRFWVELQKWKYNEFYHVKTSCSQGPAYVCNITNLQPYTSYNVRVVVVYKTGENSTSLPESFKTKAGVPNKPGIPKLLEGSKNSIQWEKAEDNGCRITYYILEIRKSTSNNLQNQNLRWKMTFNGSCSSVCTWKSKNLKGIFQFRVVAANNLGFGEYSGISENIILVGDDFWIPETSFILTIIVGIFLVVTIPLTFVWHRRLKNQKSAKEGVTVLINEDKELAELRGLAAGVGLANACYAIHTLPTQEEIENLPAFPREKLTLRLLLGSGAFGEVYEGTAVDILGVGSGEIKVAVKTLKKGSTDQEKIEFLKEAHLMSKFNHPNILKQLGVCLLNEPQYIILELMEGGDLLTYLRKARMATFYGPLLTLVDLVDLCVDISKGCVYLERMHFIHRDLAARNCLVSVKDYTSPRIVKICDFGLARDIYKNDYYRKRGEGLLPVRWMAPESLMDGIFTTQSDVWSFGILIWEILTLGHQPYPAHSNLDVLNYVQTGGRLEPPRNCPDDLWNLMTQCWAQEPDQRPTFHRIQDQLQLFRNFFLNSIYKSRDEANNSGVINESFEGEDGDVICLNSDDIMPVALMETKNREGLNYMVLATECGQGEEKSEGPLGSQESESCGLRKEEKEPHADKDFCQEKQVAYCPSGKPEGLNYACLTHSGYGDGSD
CLK1, sequence (P49759 whole entry): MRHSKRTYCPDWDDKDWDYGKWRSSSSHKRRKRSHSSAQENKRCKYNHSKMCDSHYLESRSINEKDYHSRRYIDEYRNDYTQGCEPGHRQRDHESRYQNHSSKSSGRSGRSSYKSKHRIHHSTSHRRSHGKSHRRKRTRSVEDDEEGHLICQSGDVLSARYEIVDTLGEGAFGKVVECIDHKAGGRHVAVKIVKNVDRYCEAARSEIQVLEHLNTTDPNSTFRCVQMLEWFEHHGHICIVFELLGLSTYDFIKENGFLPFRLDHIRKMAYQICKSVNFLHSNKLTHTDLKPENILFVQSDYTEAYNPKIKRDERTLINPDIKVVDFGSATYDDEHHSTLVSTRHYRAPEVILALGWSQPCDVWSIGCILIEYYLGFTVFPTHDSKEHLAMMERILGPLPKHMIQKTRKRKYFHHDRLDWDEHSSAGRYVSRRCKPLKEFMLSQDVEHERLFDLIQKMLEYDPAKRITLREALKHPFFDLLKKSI
LTK, sequence (P29376 17-864, species assumed): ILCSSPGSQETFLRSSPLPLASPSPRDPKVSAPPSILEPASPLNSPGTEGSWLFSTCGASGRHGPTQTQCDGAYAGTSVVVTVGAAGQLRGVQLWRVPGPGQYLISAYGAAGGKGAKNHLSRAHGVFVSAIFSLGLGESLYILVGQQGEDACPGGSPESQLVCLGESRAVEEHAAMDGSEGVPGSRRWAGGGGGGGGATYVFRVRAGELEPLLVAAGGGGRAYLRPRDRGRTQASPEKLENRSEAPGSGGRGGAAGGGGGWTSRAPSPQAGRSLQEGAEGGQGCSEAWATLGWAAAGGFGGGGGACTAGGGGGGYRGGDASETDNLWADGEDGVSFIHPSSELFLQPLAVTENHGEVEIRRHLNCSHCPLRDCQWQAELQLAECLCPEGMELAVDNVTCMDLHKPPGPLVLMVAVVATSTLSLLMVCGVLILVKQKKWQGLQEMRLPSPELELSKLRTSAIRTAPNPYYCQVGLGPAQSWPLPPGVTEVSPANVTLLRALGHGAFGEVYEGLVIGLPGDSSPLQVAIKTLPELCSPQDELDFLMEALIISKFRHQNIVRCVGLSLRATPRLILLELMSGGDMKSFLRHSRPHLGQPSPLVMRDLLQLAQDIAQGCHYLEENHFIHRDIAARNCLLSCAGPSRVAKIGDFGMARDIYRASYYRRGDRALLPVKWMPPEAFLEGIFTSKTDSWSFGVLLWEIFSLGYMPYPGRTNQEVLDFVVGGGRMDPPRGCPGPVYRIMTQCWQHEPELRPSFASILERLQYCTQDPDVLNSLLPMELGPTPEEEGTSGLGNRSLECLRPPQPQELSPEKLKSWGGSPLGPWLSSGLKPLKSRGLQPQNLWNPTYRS

## COc1cc(N2CCC(N3CCN(CC4CCN(c5ccc6c(c5)CN(C5CCC(=O)NC5=O)C6=O)CC4)CC3)CC2)ccc1Nc1ncc(Cl)c(Nc2ccccc2P(C)(C)=O)n1 (stereo not shown) [9o, 3-(5-(4-((4-(1-(4-((5-Chloro-4-((2-(dimethylphosphoryl)phenyl)amino)pyrimidin-2-yl)amino)-3-methoxyphenyl)piperidin-4-yl)piperazin-1-yl)methyl)piperidin-1-yl)-1-oxoisoindolin-2-yl)piperidine-2,6-dione]
ROS1 (G2032R)
  DC50: 13.2 nM
[1]
  IC50: 1.9 ± 0.4 nM
Ba/F3 ROS1 (CD74) G2032R
  IC50: 7.7 ± 2 nM
[2]
  IC50: 66.2 ± 18.2 nM
[3]
  IC50: 49.5 ± 10.2 nM
Ba/F3 ROS1 (CD74) L2086F
  IC50: 6.9 ± 1.7 nM
[4]
  IC50: 37.8 ± 4.4 nM
[5]; 10 mg/kg PO qd
  TGI (tumor growth inhibition): 62%
[5]; 30 mg/kg PO qd
  TGI (tumor growth inhibition): 164%
[6]
  IC50: 2.9 ± 0.5 nM
[7]
  IC50: 58.4 ± 11.4 nM
[8]
  IC50: 0.4 ± 0.3 nM
LTK
  IC50: 54 nM
ROS1 (G2101C)
  IC50: 83 nM
CLK1
  IC50: 35 nM
EGFR
  IC50: 69 nM
